SMILES strings stand for the structures.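 All cell lines were grown in 96-well plates and treated with compound for 48 hours. The concentration for 50% growth inhibition is given as GI50. Definition used: TGI = concentration required for complete inhibition of growth.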 A value given as a limit tells only on which side of the number the result lay.

Some test systems named below: RXF 393 renal; CCRF-CEM leukemia; SK-MEL-2 melanoma; NCI-H522 lung; SK-MEL-28 melanoma; U251 CNS; SW-620 colon; SN12C renal; RPMI-8226 leukemia; TK-10 renal.
What all share (assay): NCI anticancer screen, dose series, 48 h

As to `CCCC1C(=O)C(CC)Cc2c(OC)ccc(OC)c21` (stereo not given), the TGI in the experiment with RXF 393 renal, in the experiment on CCRF-CEM leukemia, with SK-MEL-2 melanoma, in the experiment on NCI-H522 lung, in the experiment with SK-MEL-28 melanoma and in the experiment on U251 CNS was greater than 100 µM each time. Also, the TGI with SW-620 colon, in the experiment on SN12C renal, in the experiment with RPMI-8226 leukemia and in the experiment with TK-10 renal was greater than 100 µM each time.
For `CC([C@H]1CCC2C3CCC4CC5(CC[C@]4(C)C3CC[C@@]21C)c1ccccc1C(=O)N5C)N(C)C` (stereo not given in full), the TGI with RXF 393 renal is greater than 100 µM; in the experiment on CCRF-CEM leukemia, greater than 100 µM; with SK-MEL-2 melanoma, 42.9 µM; with NCI-H522 lung, greater than 100 µM; with SK-MEL-28 melanoma, 35 µM; in the experiment with U251 CNS, greater than 100 µM. Further, the TGI with SW-620 colon, in the experiment on SN12C renal, with RPMI-8226 leukemia and in the experiment with TK-10 renal was greater than 100 µM each time.
Regarding `C/C=C1\C(=O)O[C@@H]2C1C[C@@H]1O[C@H]2[C@H](C)CCC/C(C)=C/CC[C@@]1(C)O` (stereo not given in full), the GI50 was 2.59 µM with RXF 393 renal; 3.53 µM with CCRF-CEM leukemia; 3.66 µM with SK-MEL-2 melanoma; 2.29 µM in the experiment with NCI-H522 lung; 0.38 µM with SK-MEL-28 melanoma; 10.3 µM in the experiment with U251 CNS. Moreover, the GI50 was 4.14 µM with SW-620 colon, 3.54 µM with SN12C renal, 3.27 µM with RPMI-8226 leukemia and 4.46 µM with TK-10 renal. In addition, the TGI in the experiment with RXF 393 renal worked out at 6.99 µM; in the experiment with CCRF-CEM leukemia, 11.8 µM; with SK-MEL-2 melanoma, 13.2 µM; in the experiment with NCI-H522 lung it was 7.06 µM; in the experiment on SK-MEL-28 melanoma, 21.9 µM; with U251 CNS, 23.6 µM. Moreover, the TGI in the experiment on SW-620 colon is 15 µM; in the experiment on SN12C renal, 13 µM; with RPMI-8226 leukemia, greater than 100 µM; in the experiment with TK-10 renal it was 13.5 µM.
`CN(C1=NS(=O)(=O)N=C(N(C)c2ccccc2)O1)c1ccccc1`: the TGI in the experiment on RXF 393 renal is 20.4 µM; with CCRF-CEM leukemia, greater than 100 µM; in the experiment with SK-MEL-2 melanoma it was 38 µM; in the experiment on NCI-H522 lung, 46.2 µM; in the experiment on SK-MEL-28 melanoma it was 43.3 µM; in the experiment on U251 CNS it was 36.8 µM. The TGI is 30.3 µM in the experiment with SW-620 colon, 41.2 µM in the experiment with SN12C renal, 43.9 µM in the experiment with RPMI-8226 leukemia and 80.2 µM in the experiment with TK-10 renal.

Source of the values: PubChem BioAssay (NCI).
